Earlier results on two compounds are cited in article PMC10140125 (Investigational New Drugs, 2023).

In the series the test system is recurrent malignant gliomas. Also on record: method as in PMID 20458050, PMID 20200024. The settings on record: phase II studies, recurrent malignant gliomas ref 4, 22.

In the case of `Cc1ccc(Nc2nccc(N(C)c3ccc4c(C)n(C)nc4c3)n2)cc1S(N)(=O)=O` [pazopanib], the ORR is 5.9%.
Take `COc1cc2c(Oc3ccc4[nH]c(C)cc4c3F)ncnc2cc1OCCCN1CCCC1` [cediranib]: the ORR is 56.7%.
